Biological target: cAMP and cAMP-inhibited cGMP 3',5'-cyclic phosphodiesterase 10A (Homo sapiens, UniProt Q9Y233)
Test: IMAP TR-FRET Assay: Enzyme Activity. An IMAP TR-FRET assay was used to analyze the enzyme activity (Molecular Devices Corp., Sunnyvale Calif.). 5 uL, of serial diluted PDE10A (BPS Bioscience, San Diego, Calif.) or tissue homogenate was incubated with equal volumes of diluted fluorescein labeled cAMP or cGMP for 60 min in 384-well polystyrene assay plates (Corning, Corning, N.Y.) at room temperature. After incubation, the reaction was stopped by adding 60 uL, of diluted binding reagents and was incubated for 3 hours to overnight at room temperature. The plates were read on an Envision (Perkin Elmer, Waltham, Mass.) for time resolved fluorescence resonance energy transfer. The data were analyzed with GraphPad Prism (La Jolla, Calif.).Enzyme Inhibition. To check the inhibition profile, 5 uL, of serial diluted compounds were incubated with 5 uL, of diluted PDE10 enzyme (BPS Bioscience, San Diego, Calif.) or tissue homogenate in a 384-well polystyrene assay plate (Corning, Corning, N.Y.).

cAMP and cAMP-inhibited cGMP 3',5'-cyclic phosphodiesterase 10A, sequence (Q9Y233 whole entry): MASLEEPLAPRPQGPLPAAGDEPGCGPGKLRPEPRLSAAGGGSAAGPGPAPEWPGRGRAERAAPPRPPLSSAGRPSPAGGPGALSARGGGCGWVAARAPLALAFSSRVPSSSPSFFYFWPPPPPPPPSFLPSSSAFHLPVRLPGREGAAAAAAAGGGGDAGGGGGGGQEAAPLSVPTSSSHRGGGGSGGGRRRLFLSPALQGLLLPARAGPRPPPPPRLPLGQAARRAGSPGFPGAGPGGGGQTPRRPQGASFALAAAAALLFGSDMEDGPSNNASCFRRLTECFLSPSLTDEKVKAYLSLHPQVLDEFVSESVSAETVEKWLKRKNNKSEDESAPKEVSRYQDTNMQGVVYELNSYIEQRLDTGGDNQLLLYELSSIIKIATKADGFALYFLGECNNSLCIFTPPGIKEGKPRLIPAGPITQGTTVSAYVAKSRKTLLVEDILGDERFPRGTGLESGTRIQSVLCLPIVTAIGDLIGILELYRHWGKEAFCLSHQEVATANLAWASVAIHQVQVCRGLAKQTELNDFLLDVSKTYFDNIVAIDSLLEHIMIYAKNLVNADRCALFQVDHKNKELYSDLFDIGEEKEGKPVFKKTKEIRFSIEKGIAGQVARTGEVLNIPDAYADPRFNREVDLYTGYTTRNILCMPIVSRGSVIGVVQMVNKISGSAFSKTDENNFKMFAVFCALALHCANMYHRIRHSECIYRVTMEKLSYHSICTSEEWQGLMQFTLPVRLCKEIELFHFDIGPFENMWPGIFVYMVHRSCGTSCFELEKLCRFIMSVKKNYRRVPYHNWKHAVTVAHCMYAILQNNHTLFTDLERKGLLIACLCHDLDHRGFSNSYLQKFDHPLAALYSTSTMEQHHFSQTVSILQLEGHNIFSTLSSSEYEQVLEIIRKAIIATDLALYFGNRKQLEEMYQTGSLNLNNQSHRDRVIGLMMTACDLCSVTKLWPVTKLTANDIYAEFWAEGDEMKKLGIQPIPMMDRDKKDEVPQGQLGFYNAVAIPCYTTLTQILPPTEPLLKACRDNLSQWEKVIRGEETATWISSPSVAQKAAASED

| Compound | IC50 [nM] |
| --- | --- |
| Cc1cc(-c2cccnc2O[C@H]2CC[C@H](Nc3nc4ccccc4s3)CC2)ccn1 | 19.6 |
| CC(=O)N1CCC(c2cccnc2O[C@H]2C[C@@H](Nc3ccc4ccccc4n3)C2)CC1 | 1.32 |
| NC(=O)c1ccc(-c2nccnc2O[C@H]2C[C@@H](Nc3ccc4ccccc4n3)C2)cn1 | 3.8 |
| Cc1ccnc(N[C@H]2CC[C@H](Oc3ncccc3C3CCOCC3)CC2)c1 | 150 |
| Cc1cccnc1N[C@H]1CC[C@H](Oc2ncccc2C2CCOCC2)CC1 | 46 |
| Cc1cccc(N[C@H]2CC[C@H](Oc3ncccc3C3CCOCC3)CC2)n1 | 1750 |
| c1cnc(O[C@H]2CC[C@H](Nc3ccc4ccccc4n3)CC2)c(C2CCOCC2)c1 | 91 |
| c1cnc(O[C@H]2CC[C@H](Nc3nc4ccccc4o3)CC2)c(C2CCOCC2)c1 | 12 |
| c1cnc(O[C@H]2CC[C@H](Nc3nc4ccccc4s3)CC2)c(C2CCOCC2)c1 | 32.5 |
| Cc1ccc(N[C@H]2C[C@H](Oc3ncccc3C3CCOCC3)C2)nc1 | 17.6 |
| CC(=O)N1CCC(c2nccnc2O[C@H]2C[C@@H](Nc3nc4ccccc4s3)C2)CC1 | 2.77 |
| CC(=O)N1CCC(c2nccnc2O[C@H]2C[C@H](Nc3ccc4ccccc4n3)C2)CC1 | 15.8 |
| O=C(c1ccccn1)C1CC(Oc2ncccc2C2CCOCC2)C1 (centres undefined) | 250 |
| CC(=O)N1CCC(c2nccnc2O[C@H]2C[C@@H](Nc3ccc(C)cn3)C2)CC1 | 66.1 |
| CC(=O)N1CCC(c2nccnc2O[C@H]2C[C@H](Nc3ccc(C)cn3)C2)CC1 | 84.6 |
| c1cnc(O[C@H]2C[C@@H](Nc3nc4ccccc4[nH]3)C2)c(C2CCOCC2)c1 | 1.53 |
| c1cnc(O[C@H]2C[C@H](Nc3nc4ccccc4[nH]3)C2)c(C2CCOCC2)c1 | 2.63 |
| c1cnc(O[C@H]2C[C@H](Nc3nc4ccccc4s3)C2)c(C2CCOCC2)c1 | 3.19 |
| c1cnc(O[C@H]2C[C@@H](Nc3nc4ccccc4s3)C2)c(C2CCOCC2)c1 | 0.751 |
| Fc1cccc2sc(N[C@H]3C[C@@H](Oc4nccnc4C4CCOCC4)C3)nc12 | 13 |
| Fc1ccc2sc(N[C@H]3C[C@@H](Oc4nccnc4C4CCOCC4)C3)nc2c1 | 18.3 |
| Fc1ccc2nc(N[C@H]3C[C@@H](Oc4nccnc4C4CCOCC4)C3)sc2c1 | 15.1 |

| Compound | IC50 [nM] |
| --- | --- |
| Fc1cnc(O[C@H]2C[C@@H](Nc3nc4c(F)cccc4s3)C2)c(C2CCOCC2)c1 | 5.43 |
| Fc1cnc(O[C@H]2C[C@@H](Nc3nc4cc(F)ccc4s3)C2)c(C2CCOCC2)c1 | 3.49 |
| Clc1ccc(C2=CCOCC2)c(O[C@H]2C[C@@H](Nc3nc4ccccc4s3)C2)n1 | 3.55 |
| Cc1cnccc1-c1nccnc1O[C@H]1C[C@@H](Nc2nc3ccccc3s2)C1 | 4.23 |
| Cc1cc(-c2nccnc2O[C@H]2C[C@@H](Nc3nc4ccccc4s3)C2)ccn1 | 20.5 |
| COc1ncccc1-c1nccnc1O[C@H]1C[C@@H](Nc2nc3ccccc3s2)C1 | 4.11 |
| Cc1ncc(-c2nccnc2O[C@H]2C[C@@H](Nc3nc4ccccc4s3)C2)cn1 | 3.25 |
| Clc1ccc(-c2nccnc2O[C@H]2C[C@@H](Nc3nc4ccccc4s3)C2)cn1 | 7.66 |
| N#Cc1ccc(-c2nccnc2O[C@H]2C[C@@H](Nc3nc4ccccc4s3)C2)cn1 | 7.4 |
| Cc1ccc(-c2nccnc2O[C@H]2C[C@@H](Nc3nc4cc(F)ccc4s3)C2)cn1 | 19.7 |
| N#Cc1ccc(-c2nccnc2O[C@H]2C[C@@H](Nc3ccc4ccccc4n3)C2)cn1 | 8.35 |
| N#Cc1ccc(-c2nccnc2O[C@H]2C[C@@H](Nc3ncc4ccccc4n3)C2)cn1 | 7.71 |
| N#Cc1ccc(-c2cccnc2O[C@H]2C[C@H](Nc3nc4ccccc4s3)C2)cn1 | 2.97 |
| NC(=O)c1ccc(-c2nccnc2O[C@H]2C[C@@H](Nc3nc4ccccc4s3)C2)cn1 | 2.96 |
| NC(=O)c1ccc(-c2cccnc2O[C@H]2C[C@@H](Nc3nc4ccccc4s3)C2)cn1 | 0.129 |
| COCC(=O)N1CCC(c2nccnc2O[C@H]2C[C@@H](Nc3nc4ccccc4s3)C2)CC1 | 6.57 |
| COC(=O)N1CC(c2nccnc2O[C@H]2C[C@@H](Nc3nc4ccccc4s3)C2)C1 | 17.5 |
| COCC(=O)N1CCC(c2nccnc2O[C@H]2C[C@@H](Nc3ccc4ccccc4n3)C2)CC1 | 5.06 |
| COC(=O)N1CCC(c2cccnc2O[C@H]2C[C@@H](Nc3nc4ccccc4s3)C2)CC1 | 3.18 |
| COCC(=O)N1CCC(c2cccnc2O[C@H]2C[C@@H](Nc3ccc4ccccc4n3)C2)CC1 | 0.948 |
| OCC1CCN(c2nccnc2O[C@H]2C[C@@H](Nc3nc4ccccc4s3)C2)CC1 | 3.16 |
| c1ccc2sc(N[C@H]3C[C@@H](Oc4nccnc4N4CCOCC4)C3)nc2c1 | 22.4 |

| Compound | IC50 [nM] |
| --- | --- |
| CC1CCN(c2nccnc2O[C@H]2C[C@@H](Nc3nc4ccccc4s3)C2)C1 (some centres undefined) | 6.92 |
| N#CC1CCN(c2nccnc2O[C@H]2C[C@@H](Nc3nc4ccccc4s3)C2)C1 (some centres undefined) | 1.07 |
| CC1CCCN(c2nccnc2O[C@H]2C[C@@H](Nc3nc4ccccc4s3)C2)C1 (some centres undefined) | 29.4 |
| OCC1CCCN(c2nccnc2O[C@H]2C[C@@H](Nc3nc4ccccc4s3)C2)C1 (some centres undefined) | 3.62 |
| FC1(F)CCN(c2nccnc2O[C@H]2C[C@@H](Nc3nc4ccccc4s3)C2)C1 | 11.1 |
| O=S1(=O)CCN(c2nccnc2O[C@H]2C[C@@H](Nc3nc4ccccc4s3)C2)CC1 | 18.5 |
| O[C@@H]1CCN(c2nccnc2O[C@H]2C[C@@H](Nc3nc4ccccc4s3)C2)C1 | 14.2 |
| O[C@H]1CCN(c2nccnc2O[C@H]2C[C@@H](Nc3nc4ccccc4s3)C2)C1 | 17.5 |
| N#CC1CCN(c2nccnc2O[C@H]2C[C@@H](Nc3nc4ccccc4s3)C2)CC1 | 2.31 |
| CN1CCN(c2nccnc2O[C@H]2C[C@@H](Nc3nc4ccccc4s3)C2)CC1 | 122 |
| N#CC1CCN(c2nccnc2O[C@H]2C[C@@H](Nc3ccc4ccccc4n3)C2)CC1 | 2.26 |
| CN1CCN(c2nccnc2O[C@H]2C[C@@H](Nc3ncc4ccccc4n3)C2)CC1 | 316 |
| OCC1CCN(c2nccnc2O[C@H]2C[C@@H](Nc3ncc4ccccc4n3)C2)CC1 | 10.9 |
| CC(=O)N1CCN(c2nccnc2O[C@H]2C[C@@H](Nc3nc4ccccc4s3)C2)CC1 | 9.26 |
| CC(=O)N1CCN(c2nccnc2O[C@H]2C[C@@H](Nc3ccc4ccccc4n3)C2)CC1 | 23.7 |
| N#CC1CCN(c2cccnc2O[C@H]2C[C@@H](Nc3nc4ccccc4s3)C2)CC1 | 1.25 |
| c1cnc(O[C@H]2C[C@@H](Nc3ccc4ccccc4n3)C2)c(C2CCOCC2)c1 | 1.5 |
| c1ccc2nc(N[C@H]3C[C@@H](Oc4nccnc4C4CCOCC4)C3)ccc2c1 | 7.5 |
| COC(=O)N1CCC(c2nccnc2O[C@H]2C[C@@H](Nc3nc4ccccc4s3)C2)CC1 | 4.24 |
| O=C(c1nc2ccccc2[nH]1)[C@H]1C[C@H](Oc2ncccc2C2CCOCC2)C1 | 7.15 |
